Source: patent US8741945B2, “Compounds” (Novacta Biosystems Limited, priority 2009, dated 2014)
Values joined by “and” are separate entries in the source; they are usually repeats but may differ in a detail not shown here. Equal values may be shown once.

Tests used:
[1] = test system: Clostridium difficile strains; experiment: Susceptibility testing (MIC) by two-fold serial agar dilution, Wilkins-Chalgren Anaerobe agar, anaerobic; format: cell-based
Experimental: Susceptibility testing for Clostridium difficile strains was performed by two-fold serial antibiotic dilutions in Wilkins-Chalgren Anaerobe agar under anaerobic conditions. Vancomycin was included as a comparator drug. C. difficile cultures were inoculated onto pre-reduced Braziers (C.C.E.Y.) agar plates and grown at 37° C. for 48 hours under anaerobic conditions. Two to three colonies of the 48 hours cultures were inoculated into 5 ml of pre-reduced Schaedlers Broth and grown at 37° C. for 24 hours under anaerobic conditions. This culture was diluted with pre-reduced 0.9% NaCl to achieve the turbidity of the 0.5 McFarland standard and applied to the drug containing plates at a final inoculum of 10^5 cfu/spot. Drug-free growth control plates were included. The plates were incubated in the anaerobic chamber at 37° C. for 48 hours and examined for growth.

[2] = Stability to enzymatic digestion in simulated intestinal fluid (SIF); format: in vitro ADME; conditions: 37° C., HPLC quantification (FIG. 1)
Experimental: Nisin and the compound of Example 1 were tested for their susceptibility towards enzymatic digestion in the intestine using a simulated intestinal fluid (SIF). The SIF was based on the standard USP solutions for simulated intestinal fluids and its activity was confirmed against Bovine Serum Albumin (Hilger et al, Clin. Exp. Immunol. 2001, 123, 387-94). The compounds were incubated in SIF at 37° C. and their concentrations quantified by analytical HPLC (UV detection at 210 nm using the conditions outline in Table 1).

[3] = test system: C. difficile strain 4013; experiment: Hamster model of C. difficile associated cecitis (clindamycin induced); format: in vivo; conditions: three times daily at 10 mg/kg/day, 5-day dosing period, groups of 6
Experimental: The in vivo efficacy of the compounds of the invention in the treatment of C. difficile infections was evaluated in the standard animal model for CDAD, clindamycin induced cecitis in the hamster.
Groups of 6 animals were dosed with approximately 10^7 cells of C. difficile strain 4013 and 24 hours later with a subcutaneous dose of 10 mg/kg clindamycin phosphate. After a further 24 hours, the groups were then treated either with vehicle, vancomycin or with the compound of Example 1 three times daily at 10 mg/kg/day.

[4] = 7-day toxicity experiment in a rat model; format: in vivo
Experimental: The compound of Example 1 was tested in a 7-day toxicity experiment in a rat model. One study used 50 mg/kg/day of material administered intravenously for 7 days. The other study used 200 mg/kg/day of material administered orally for 7 days.

[5] = Tolerability in the Syrian hamster; format: in vivo; conditions: 50 mg/kg/day orally
[6] = 50 mg/kg/day intravenously for 7 days
[7] = 200 mg/kg/day orally for 7 days

CCC(C)[C@@H]1NC(=O)[C@@H]2NC(=O)[C@H](CC(C)C)NC(=O)[C@H](NC(=O)C3CSC[C@H](N)C(=O)N[C@@H](CO)C(=O)NCC(=O)N[C@@H](Cc4c[nH]c5ccccc45)C(=O)N[C@@H](C(C)C)C(=O)N3)[C@H](C)SC[C@H](NC(=O)[C@H](CCC(=O)O)NC1=O)C(=O)NCC(=O)N[C@@H]1C(=O)N[C@@H](CC(C)C)C(=O)N[C@@H](C(C)C)C(=O)N[C@@H](CS[C@H]2C)C(=O)N[C@@H](C)C(=O)N[C@H](C(=O)NCCCCCCCN)CS[C@H]1C (some centres unmarked) [Example 1, Deoxyactagardine B (7-amino-1-heptylamide monocarboxamide)]
MIC ([1]; C. diff strain 027Can, listed as Eg 1): 0.5, 0.5 μg/ml and 1, 1 μg/ml and 1 μg/ml and 0.5 μg/ml | MIC ([1]; C. diff strain 027SM): 1, 1 μg/ml | MIC ([1]; C. diff strain 630, listed as Eg 1): 0.5, 0.5 μg/ml and 0.5 μg/ml and 1 μg/ml and 1, 1 μg/ml | MIC ([1]; C. diff strain 19126, listed as Eg 1): 1, 1 μg/ml and 0.5 μg/ml and 1 μg/ml | MIC ([1]; C. diff strain 37779, listed as Eg 1): 1, 1 μg/ml and 1 μg/ml and 0.5 μg/ml | MIC ([1]; C. diff strain B32): 1, 1 μg/ml | MIC ([1]; C. diff strain E16, listed as Eg 1): 1 µg/mL and 2 µg/mL | MIC ([1]; C. diff strain E101): 1, 1 μg/ml | MIC ([1]; C. diff strain P24): 1, 1 μg/ml | MIC ([1]; C. diff strain P62, listed as Eg 1): 2 µg/mL and 1 µg/mL | activity (MIC) ([1]; against many common strains of C. difficile): ≤ 1 µg/mL | stability in SIF [2]: essentially stable | survival [3]: survived for the duration of the entire 5-day dosing period | necropsy [4, 6]: no organ damage | toxicological effects [4, 6]: No significant toxicological effects | necropsy [4, 7]: no organ damage | toxicological effects [4, 7]: No significant toxicological effects | tolerability [5]: tolerated without obvious signs of toxicity

CN[C@H](CC(C)C)C(=O)N[C@H]1C(=O)N[C@@H](CC(N)=O)C(=O)N[C@H]2C(=O)N[C@H]3C(=O)N[C@H](C(=O)N[C@H](C(=O)O)c4cc(O)cc(O)c4-c4cc3ccc4O)[C@H](O)c3ccc(c(Cl)c3)Oc3cc2cc(c3O[C@@H]2O[C@H](CO)[C@@H](O)[C@H](O)[C@H]2O[C@H]2C[C@](C)(N)[C@H](O)[C@H](C)O2)Oc2ccc(cc2Cl)[C@H]1O [vancomycin, reference compound]
survival [3]: survived for the duration of the entire 5-day dosing period

Deoxyactagardine B (3-amino-1-propylamide monocarboxamide) [Example 5]
MIC ([1]; C. diff strain 027SM): 2, 2 μg/ml | MIC ([1]; C. diff strain 630, listed as Eg 5): 1, 1 μg/ml and 2, 2 μg/ml | MIC ([1]; C. diff strain 19126, listed as Eg 5): 2, 2 μg/ml and 1, 1 μg/ml | MIC ([1]; C. diff strain 37779, listed as Eg 5): 1, 1 μg/ml and 2, 2 μg/ml | MIC ([1]; C. diff strain B32): 2, 2 μg/ml | MIC ([1]; C. diff strain E16, listed as Eg 5): 1 µg/mL and 2 µg/mL | MIC ([1]; C. diff strain E101): 2, 2 μg/ml | MIC ([1]; C. diff strain P24): 2, 2 μg/ml | MIC ([1]; C. diff strain P62): 2, 2 μg/ml

Deoxyactagardine B (12-amino-1-dodecylamide monocarboxamide) [Example 8]
MIC ([1]; C. diff strain 027Can): 1, 1 μg/ml | MIC ([1]; C. diff strain 027SM): 2, 2 μg/ml | MIC ([1]; C. diff strain 630, listed as Eg8): 0.5, 0.5 μg/ml and 1, 1 μg/ml | MIC ([1]; C. diff strain 19126, listed as Eg8): 1, 1 μg/ml and 2, 2 μg/ml | MIC ([1]; C. diff strain 37779, listed as Eg8): 1, 1 μg/ml and 1 μg/ml and 2 μg/ml | MIC ([1]; C. diff strain B32, listed as Eg8): 2 µg/mL and 1 µg/mL | MIC ([1]; C. diff strain E16): 2, 2 μg/ml | MIC ([1]; C. diff strain E101): 2, 2 μg/ml | MIC ([1]; C. diff strain P24, listed as Eg8): 2 µg/mL and 1 µg/mL | MIC ([1]; C. diff strain P62): 2, 2 μg/ml
